Measured values from ChEMBL document CHEMBL1201861, “Genomics of Drug Sensitity in Cancer screening data, Wellcome Trust Sanger Institute”.

Key:
Test in all cases: cells
DEL = format: functional, cell-based; conditions: Homo sapiens;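 further: growth inhibition of the human DEL cell line, read out with a cell viability assay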
Description: SANGER: Inhibition of human DEL cell growth in a cell viability assay.

DOHH-2 = format: functional, cell-based; conditions: Homo sapiens;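 further: growth inhibition of human DOHH-2 cells, read out with a cell viability assay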
Description: SANGER: Inhibition of human DOHH-2 cell growth in a cell viability assay.

ETK-1 = format: functional, cell-based, Homo sapiens; conditions: Homo sapiens, ETK-1;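 further: growth inhibition of human ETK-1 cells, read out with a cell viability assay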
Description: SANGER: Inhibition of human ETK-1 cell growth in a cell viability assay.

EW-1 = format: functional, cell-based, Homo sapiens; conditions: Homo sapiens, EW-1
Description: SANGER: Inhibition of human EW-1 cell growth in a cell viability assay.

EW-18 = format: functional, cell-based; conditions: Homo sapiens;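 further: growth inhibition of EW-18 cells, read out by a cell viability assay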
Description: SANGER: Inhibition of human EW-18 cell growth in a cell viability assay.

EW-24 = format: functional, cell-based; conditions: Homo sapiens;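 further: human EW-24 cancer cell line, growth inhibition read out via a cell viability assay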
Description: SANGER: Inhibition of human EW-24 cell growth in a cell viability assay.

GCIY = format: functional, cell-based, Homo sapiens; conditions: Homo sapiens, GCIY;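 further: growth inhibition of the human GCIY cell line, read out by a cell viability assay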
Description: SANGER: Inhibition of human GCIY cell growth in a cell viability assay.

HCC2157 = format: functional, cell-based; conditions: Homo sapiens;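 further: growth inhibition of the cancer cell line, read out as cell viability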
Description: SANGER: Inhibition of human HCC2157 cell growth in a cell viability assay.

JAR = format: functional, cell-based, Homo sapiens; conditions: Homo sapiens, JAR;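 further: growth inhibition of human JAR cells determined with a cell viability assay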
L-428 = format: functional, cell-based; conditions: Homo sapiens
Description: SANGER: Inhibition of human L-428 cell growth in a cell viability assay.

LS-513 = format: functional, cell-based, Homo sapiens; conditions: Homo sapiens, LS-513
Description: SANGER: Inhibition of human LS-513 cell growth in a cell viability assay.

MZ2-MEL = format: functional, cell-based, Homo sapiens; conditions: Homo sapiens, MZ2-MEL;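 further: growth inhibition of MZ2-MEL cells read out with a cell viability assay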
Description: SANGER: Inhibition of human MZ2-MEL cell growth in a cell viability assay.

NCI-H1838 = format: functional, cell-based, Homo sapiens; conditions: Homo sapiens, NCI-H1838;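 further: growth inhibition of NCI-H1838 cells, determined with a cell viability readout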
Description: SANGER: Inhibition of human NCI-H1838 cell growth in a cell viability assay.

NCI-H226 = format: functional, cell-based, Homo sapiens; conditions: Homo sapiens, NCI-H226;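 further: cell viability read-out used to gauge growth inhibition of the cells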
Description: SANGER: Inhibition of human NCI-H226 cell growth in a cell viability assay.

NCI-H510A = format: functional, cell-based; conditions: Homo sapiens;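 further: growth inhibition of NCI-H510A cells, read out with a cell viability assay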
NOS-1 = format: functional, cell-based, Homo sapiens; conditions: Homo sapiens, NOS-1;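 further: growth inhibition of the human NOS-1 cell line, read out with a cell viability assay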
Description: SANGER: Inhibition of human NOS-1 cell growth in a cell viability assay.

RKO = format: functional, cell-based, Homo sapiens; conditions: Homo sapiens, RKO;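 further: growth inhibition of human RKO cells, read out with a cell viability assay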
SF-539 = format: functional, cell-based, Homo sapiens; conditions: Homo sapiens, SF-539;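 further: Read-out is a cell viability assay, with IC50 reflecting inhibition of cell growth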
Description: SANGER: Inhibition of human SF539 cell growth in a cell viability assay.

SH-4 = format: functional, cell-based, Homo sapiens; conditions: Homo sapiens, SH-4;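 further: growth inhibition of SH-4 cells, read out with a cell viability assay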
Description: SANGER: Inhibition of human SH-4 cell growth in a cell viability assay.

SK-MEL-1 = format: functional, cell-based; conditions: Homo sapiens;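 further: growth inhibition of human SK-MEL-1 cells, read out by a cell viability assay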
Description: SANGER: Inhibition of human SK-MEL-1 cell growth in a cell viability assay.

SK-PN-DW = format: functional, cell-based; conditions: Homo sapiens;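 further: growth inhibition measured with a viability assay on these cells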
Description: SANGER: Inhibition of human SK-PN-DW cell growth in a cell viability assay.

SW684 = format: functional, cell-based, Homo sapiens; conditions: Homo sapiens, SW684;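 further: growth inhibition of human SW684 cells, measured by a cell viability assay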
Description: SANGER: Inhibition of human SW684 cell growth in a cell viability assay.

TGW = format: functional, cell-based; conditions: Homo sapiens;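 further: growth inhibition of human TGW cells, read out with a cell viability assay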
Description: SANGER: Inhibition of human TGW cell growth in a cell viability assay.

SNU-C2B = format: functional, cell-based, Homo sapiens; conditions: Homo sapiens, SNU-C2B;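 further: cell viability readout used to measure compound-driven suppression of SNU-C2B cell proliferation, IC50 marking half-maximal growth inhibition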
Description: SANGER: Inhibition of human SNU-C2B cell growth in a cell viability assay.

TE-11 = format: functional, cell-based, Homo sapiens; conditions: Homo sapiens, TE-11;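 further: growth inhibition of human TE-11 cells, read out by a cell viability assay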
Description: SANGER: Inhibition of human TE-11 cell growth in a cell viability assay.

SMILES | IC50 (DEL) | IC50 (DOHH-2) | IC50 (ETK-1) | IC50 (EW-1) | IC50 (EW-18) | IC50 (EW-24) | IC50 (GCIY) | IC50 (HCC2157) | IC50 (JAR) | IC50 (L-428) | IC50 (LS-513) | IC50 (MZ2-MEL) | IC50 (NCI-H1838) | IC50 (NCI-H226) | IC50 (NCI-H510A) | IC50 (NOS-1) | IC50 (RKO) | IC50 (SF-539) | IC50 (SH-4) | IC50 (SK-MEL-1) | other results
C=C1C(=O)O[C@@H]2C3O[C@]3(C)CC/C=C(\C)CC[C@@H]12 (stereo partly drawn) | > 5 µM | > 5 µM | > 5 µM | > 5 µM | > 5 µM | > 5 µM | > 5 µM | > 5 µM | > 5 µM | > 5 µM | > 5 µM | > 5 µM | > 5 µM | > 5 µM | > 5 µM | > 5 µM | > 5 µM | 2.47 µM | > 5 µM | > 5 µM | IC50 (SK-PN-DW): > 5 µM; IC50 (SW684): > 5 µM; IC50 (TGW): > 5 µM
CC1=C2C[C@H]3[C@@H](CC=C4C[C@@H](O)CC[C@@]43C)[C@@H]2CC[C@]12O[C@@H]1C[C@H](C)CN[C@H]1[C@H]2C [CYCLOPAMINE] | > 16 µM | 9.36 µM | > 16 µM | > 16 µM | > 16 µM | > 16 µM | > 16 µM | > 16 µM | > 16 µM | > 16 µM | 11.4 µM | > 16 µM | > 16 µM | > 16 µM | > 16 µM | > 16 µM | > 16 µM | > 16 µM | > 16 µM | > 16 µM | IC50 (SK-PN-DW): > 16 µM; IC50 (SW684): > 16 µM; IC50 (TGW): > 16 µM
CS(=O)(=O)CCNCc1ccc(-c2ccc3ncnc(Nc4ccc(OCc5cccc(F)c5)c(Cl)c4)c3c2)o1 [LAPATINIB] | > 2 µM | > 2 µM | > 2 µM | > 2 µM | > 2 µM | > 2 µM | > 2 µM | > 2 µM | > 2 µM | > 2 µM | > 2 µM | > 2 µM | > 2 µM | > 2 µM | > 2 µM | > 2 µM | > 2 µM | > 2 µM | > 2 µM | > 2 µM | IC50 (SK-PN-DW): > 2 µM; IC50 (SW684): > 2 µM; IC50 (TGW): > 2 µM
CCc1nc(N)nc(N)c1-c1ccc(Cl)cc1 [PYRIMETHAMINE] | 3.93 µM | > 20 µM | 4.1 µM | 1.37 µM | > 20 µM | > 20 µM | > 20 µM | > 20 µM | > 20 µM | > 20 µM | > 20 µM | > 20 µM | > 20 µM | > 20 µM | > 20 µM | 6.66 µM | > 20 µM | 2.55 µM | > 20 µM | > 20 µM | IC50 (SK-PN-DW): > 20 µM; IC50 (SW684): > 20 µM; IC50 (TGW): > 20 µM
O=C(/C=C/c1ccccc1)NC(NC(=S)Nc1cccc2cccnc12)C(Cl)(Cl)Cl (stereo not drawn) [SALUBRINAL] | > 16 µM | 10.2 µM | > 16 µM | 9.71 µM | > 16 µM | > 16 µM | > 16 µM | > 16 µM | > 16 µM | > 16 µM | > 16 µM | > 16 µM | > 16 µM | > 16 µM | 7.04 µM | > 16 µM | > 16 µM | > 16 µM | > 16 µM | > 16 µM | IC50 (SK-PN-DW): > 16 µM; IC50 (SW684): > 16 µM; IC50 (TGW): > 16 µM
CN1CCN(CCOc2cc(OC3CCOCC3)c3c(Nc4c(Cl)ccc5c4OCO5)ncnc3c2)CC1 [SARACATINIB] | > 2 µM | 1.72 µM | > 2 µM | > 2 µM | > 2 µM | 0.627 µM | > 2 µM | > 2 µM | > 2 µM | > 2 µM | > 2 µM | > 2 µM | > 2 µM | > 2 µM | > 2 µM | 0.605 µM | > 2 µM | > 2 µM | > 2 µM | > 2 µM | IC50 (SK-PN-DW): > 2 µM; IC50 (SNU-C2B): > 2 µM; IC50 (SW684): > 2 µM; IC50 (TE-11): 1.43 µM; IC50 (TGW): > 2 µM
CO[C@H]1C[C@@H]2CC[C@@H](C)[C@@](O)(O2)C(=O)C(=O)N2CCCC[C@H]2C(=O)O[C@H]([C@H](C)C[C@@H]2CC[C@@H](O)[C@H](OC)C2)CC(=O)[C@H](C)/C=C(\C)[C@@H](O)[C@@H](OC)C(=O)[C@H](C)C[C@H](C)/C=C/C=C/C=C/1C [SIROLIMUS] | 0.018 µM | 0.00335 µM | 0.00282 µM | 0.00217 µM | > 0.1 µM | > 0.1 µM | 0.0535 µM | > 0.1 µM | > 0.1 µM | > 0.1 µM | > 0.1 µM | > 0.1 µM | > 0.1 µM | > 0.1 µM | > 0.1 µM | 0.000871 µM | 0.0503 µM | < 0.000391 µM | 0.00434 µM | > 0.1 µM | IC50 (SK-PN-DW): 0.0202 µM; IC50 (SNU-C2B): > 0.1 µM; IC50 (SW684): > 0.1 µM; IC50 (TE-11): 0.0772 µM; IC50 (TGW): > 0.1 µM
CNC(=O)c1cc(Oc2ccc(NC(=O)Nc3ccc(Cl)c(C(F)(F)F)c3)cc2)ccn1 [SORAFENIB] | > 4 µM | > 4 µM | > 4 µM | > 4 µM | > 4 µM | > 4 µM | > 4 µM | > 4 µM | > 4 µM | > 4 µM | > 4 µM | > 4 µM | > 4 µM | > 4 µM | > 4 µM | 0.564 µM | > 4 µM | > 4 µM | 0.656 µM | > 4 µM | IC50 (SK-PN-DW): > 4 µM; IC50 (SW684): > 4 µM; IC50 (TGW): > 4 µM
CCC(=O)N1CCN(c2ccc(-n3c(=O)ccc4cnc5ccc(-c6cnc7ccccc7c6)cc5c43)cc2C(F)(F)F)CC1 [TORIN1] | 0.0281 µM | 0.00225 µM | < 0.00469 µM | 0.00749 µM | > 1.2 µM | > 1.2 µM | 0.0101 µM | 0.34 µM | 0.116 µM | 0.103 µM | 0.391 µM | 0.0234 µM | > 1.2 µM | > 1.2 µM | 0.772 µM | 0.00242 µM | 0.0153 µM | 0.984 µM | 0.0358 µM | > 1.2 µM | IC50 (SK-PN-DW): 0.0495 µM; IC50 (SNU-C2B): 0.243 µM; IC50 (SW684): > 1.2 µM; IC50 (TE-11): 0.0237 µM; IC50 (TGW): 0.375 µM
Cc1cc(Nc2cc(N3CCN(C)CC3)nc(Sc3ccc(NC(=O)C4CC4)cc3)n2)n[nH]1 [TOZASERTIB] | 1.26 µM | 0.338 µM | 1.14 µM | 1.19 µM | > 2 µM | > 2 µM | > 2 µM | > 2 µM | > 2 µM | > 2 µM | > 2 µM | > 2 µM | > 2 µM | > 2 µM | 0.438 µM | > 2 µM | 0.308 µM | > 2 µM | > 2 µM | > 2 µM | IC50 (SK-PN-DW): 0.791 µM; IC50 (SNU-C2B): > 2 µM; IC50 (SW684): > 2 µM; IC50 (TE-11): 0.15 µM; IC50 (TGW): > 2 µM
